Measurements taken from ChEMBL document CHEMBL5370642, “Synthesis and Bioevaluation of 3-(Arylmethylene)indole Derivatives: Discovery of a Novel ALK Modulator with Antiglioblastoma Activities” (J Med Chem, 2023).
The source made the active and inactive calls. No cut-off for these calls is given here.

Tests used:
[1] = system: GL261; test: Anti-proliferative activity against mouse GL261 cells assessed as cell viability incubated for 2 hrs by CCK8 assay; assay type: functional, cell-based; conditions: GL261, 2 h
[2] = system: U-87 MG; test: Anti-proliferative activity against human U-87 MG cells assessed as cell viability incubated for 2 hrs by CCK8 assay; assay type: functional, cell-based, U-87MG ATCC
[3] = system: U-87 MG; test: Anti-proliferative activity against human U-87 MG cells assessed as inhibition rate incubated for 48 hrs by CCK8 assay; assay type: functional, cell-based; conditions: U-87MG ATCC
[4] = system: GL261; test: Anti-proliferative activity against […] GL261 cells assessed as inhibition rate incubated for 48 hrs by CCK8 assay; assay type: functional, cell-based

Structure (SMILES) | IC50 [1] [µM] | IC50 [2] [µM] | inhibition [3] | inhibition [4]
Cc1cc(Cc2cn(S(C)(=O)=O)c3ccccc23)cc(C)c1O | 100 | > 100 |  | 
Cc1cc(Cc2cn(S(=O)(=O)c3ccc([N+](=O)[O-])cc3)c3ccccc23)cc(C)c1O | 100 | > 100 |  | 
CC(C)c1cccc(C(C)C)c1O [PROPOFOL] | 100 | > 100 |  | 
COc1ccc2c(c1)c(Cc1cc(C)c(O)c(C)c1)cn2S(=O)(=O)c1ccc(C)cc1 | 56.1 | 28.1 |  | 
Cc1ccc(S(=O)(=O)n2cc(Cc3cc(C)c(O)c(C)c3)c3cc(C#N)ccc32)cc1 | 9.6 | 30.2 |  | 
Cc1cc(Cc2c[nH]c3ccc(F)cc23)cc(C)c1O | 19.2 | 55.1 |  | 
OCc1c[nH]c2ccccc12 [INDOLE-3-CARBINOL] | 100 | > 100 |  | 
Cc1cc(Cc2cn(S(=O)(=O)c3ccc(Br)cc3)c3ccccc23)cc(C)c1O | 100 | > 100 |  | 
COc1ccc2c(Cc3cc(C)c(O)c(C)c3)cn(S(=O)(=O)c3ccc(C)cc3)c2c1 | 38.5 | 10.4 |  | 
Cc1cc(Cc2cn(C(=O)c3ccc(Cl)cc3)c3ccccc23)cc(C)c1O | 100 | 41.3 |  | 
Cc1ccc(S(=O)(=O)n2cc(Cc3cc(C)c(O)c(C)c3)c3cc(NC(=O)CCCC[C@@H]4SC[C@@H]5NC(=O)N[C@@H]54)ccc32)cc1 |  |  | Active | Active
CCn1cc(Cc2cc(C)c(O)c(C)c2)c2ccccc21 | 100 | > 100 |  | 
Cc1ccc(S(=O)(=O)n2cc(Cc3cc(C)c(O)c(C)c3)c3cc(F)ccc32)cc1 | 100 | 42.6 |  | 
Cc1cc(Cc2cn(C(=O)c3ccc(N4CCOCC4)cc3)c3ccccc23)cc(C)c1O | 12.7 | 12.6 |  | 
Cc1ccc(S(=O)(=O)n2cc(Cc3cc(C)c(O)c(C)c3)c3cc([N+](=O)[O-])ccc32)cc1 | 19.7 | 23.2 |  | 
COc1c(C)cc(Cc2cn(S(=O)(=O)c3ccc(C)cc3)c3ccccc23)cc1C | 100 | > 100 |  | 

Structure (SMILES) | IC50 [1] [µM] | IC50 [2] [µM] | inhibition [3] | inhibition [4]
CCC(=O)n1cc(Cc2cc(C)c(O)c(C)c2)c2ccccc21 | 2850 | 100 |  | 
Cc1cc(Cc2cn(Cc3ccc(Cl)cc3)c3ccccc23)cc(C)c1O | 54.9 | 87.8 |  | 
Cc1cc(Cc2cn(C(=O)c3ccc([N+](=O)[O-])cc3)c3ccccc23)cc(C)c1O | 100 | > 100 |  | 
Cc1cc(Cc2c[nH]c3ccccc23)cc(C)c1O | 12.8 | > 100 |  | 
Cc1ccc(S(=O)(=O)n2cc(Cc3cc(C(C)C)c(O)c(C(C)C)c3)c3ccccc32)cc1 | 90.3 | 75.4 |  | 
Cc1cc(Cc2c[nH]c3ccc([N+](=O)[O-])cc23)cc(C)c1O | 43.8 | 74.6 |  | 
Cc1cc(Cc2cn(C(=O)c3ccncn3)c3ccccc23)cc(C)c1O | 13.3 | > 100 |  | 
CC(=O)n1cc(Cc2cc(C)c(O)c(C)c2)c2ccccc21 | 25.4 | 58.3 |  | 
Cc1ccc(S(=O)(=O)n2cc(Cc3cc(C(C)(C)C)c(O)c(C(C)(C)C)c3)c3ccccc32)cc1 | 100 | > 100 |  | 
Cc1ccc(S(=O)(=O)n2cc(Cc3cc(C)c(O)c(C)c3)c3cc(C)ccc32)cc1 | 12.3 | 20.7 |  | 
Cc1cc(Cc2cn(C)c3ccccc23)cc(C)c1O | 12.7 | 7.96 |  | 
C[C@@H](Oc1cc(-c2cnn(C3CCNCC3)c2)cnc1N)c1c(Cl)ccc(F)c1Cl [CRIZOTINIB] | 3.43 | 7.29 |  | 
Cc1cc(Cc2cn(C(=O)c3ccc(N4CCN(C)CC4)cc3)c3ccccc23)cc(C)c1O | 3.49 | 5.59 |  | 
Cc1cc(Cc2cn(S(=O)(=O)c3ccc([N+](=O)[O-])c(Cl)c3)c3ccccc23)cc(C)c1O | 15.7 | 3.52 |  | 
Cc1cc(Cc2cn(C(=O)c3ccnc4ccccc34)c3ccccc23)cc(C)c1O | 11.4 | > 100 |  | 
